Measured values as given in patent publication US20220142948A1, “COMPOSITIONS AND METHODS FOR MODULATING METABOLIC REGULATORS OF T CELL PATHOGENICITY” (The Broad Institute, Inc., priority 2019, published 2022).
Entries after “also recorded” stand apart in the source; their conditions may differ.

Columns and labels:
[1] = tested on: Th17 cells (Th17n, Th17p); test: qPCR of in vitro differentiated T cells; format: cell-based, mouse
Experimental: qPCR. RNA was isolated using RNeasy Plus Mini Kit (Qiagen) and reverse transcribed to cDNA with iScript cDNA Synthesis Kit (Bio-Rad). Gene expression was analyzed by quantitative real-time PCR on a ViiA7 System (Thermo Fisher Scientific) using TaqMan Fast
Advanced Master Mix (Thermo Fisher Scientific) with the following primer/probe sets: Il-17a (Mm00439618_m1), Il-17f (Mm00521423_m1), Foxp3 (Mm00475162_m1), Tead1 (Mm00493507_m1), Taz (Mm00504978_m1), Sat1 (Mm00485911_g1) and Actb (Applied Biosystems). Expression values were calculated relative to Actb detected in the same sample by duplex qPCR.
qPCR. RNA was isolated using RNeasy Plus Mini Kit (Qiagen) and reverse transcribed to cDNA with iScript cDNA Synthesis Kit (Bio-Rad). Gene expression was analyzed by quantitative real-time PCR on a ViiA7 System (Thermo Fisher Scientific) using TaqMan Fast Advanced Master Mix (Thermo Fisher Scientific) with the following primer/probe sets: Ass1 (Mm00711256_m1), Odc1 (Mm02019269_g1), Sat1 (Mm00485911_g1), Srm (Mm00726089_s1), Sms (Mm00786246_s1), Il-17a (Mm00439618_m1), Il-17f (Mm00521423_m1), Foxp3 (Mm00475162_m1), Tead1 (Mm00493507_m1), Taz (Mm00504978_m1), and Actb (Applied Biosystems). Expression values were calculated relative to Actb detected in the same sample by duplex qPCR.

[2] = tested on: Th17 cells (Th17n, Th17p); test: T cell differentiation culture and flow cytometry (intracellular cytokine and transcription factor staining, CellTrace proliferation)
Experimental: Naïve CD4+CD44-CD62L+CD25-T cells were sorted using BD FACSAria sorter and activated with plate-bound anti-CD3 (1 μg/ml) and antiCD28 antibodies (2 μg/ml) in the presence of cytokines at a concentration of 5×10^5 cells/ml.
Naïve CD4+CD44-CD62L+CD25− T cells with or without including IL-17A.GFP+ were sorted using BD FACSAria sorter and activated with plate-bound anti-CD3 and antiCD28 antibodies (each 1 μg/ml) in the presence of cytokines at a concentration of 5×10^5 cells/ml. For T cell differentiations the following combinations of cytokines were used: pathogenic Th17 (Th17p): 25 ng/ml rmIL-6, 20 ng/ml rmIL-1b (both Miltenyi Biotec) and 20 ng/ml rmIL-23 (R&D systems); non-pathogenic Th17 (Th17n): 25 ng/ml rmIL-6 and 2 ng/ml of rhTGFb1 (Miltenyi Biotec). For differentiation experiments, cells were harvested at 72 hours and were performed in the presence or absence of 50 μM EGCG (Selleck Chemicals), 50 μM DHEA, 40 μM DCA, 10 μM Shikonin (all Sigma) as indicated.
Proliferation was assessed by staining with CellTrace Violet (Thermo Fisher Scientific) per manufacturer's instructions. All stainings were analyzed on a FACS LSR II (BD Bioscience) and using FlowJo software.

[3] = tested on: Th17 cells (Th17n, Th17p); test: Legendplex analysis of cytokines in culture supernatant; format: cell-based, mouse
Experimental: Legendplex. Cytokine concentrations in supernatants of in vitro cultures were analyzed by the LegendPlex Mouse Th Cytokine Panel (13-plex) (BioLegend) according to the manufacturer's instructions and analyzed on a FACS LSR II (BD Biosciences).
Seahorse assay was performed and seahorse media was prepared following manufacturer instructions (Agilent). Cells were re-stimulated with PMA/ionomycin for four hours in the presence of brefaldin and monensin before analysis for cytokines by intracellular cytokine staining. Cytokine concentrations in supernatants of in vitro cultures were analyzed by the LegendPlex Mouse Th Cytokine Panel (13-plex) (BioLegend) according to the manufacturer's instructions and analyzed on a FACS LSR II (BD Biosciences).

[4] = tested on: Th17 cells (Th17n, Th17p); test: Protein, phospho-protein and histone mark analysis by flow cytometry; format: cell-based, mouse
Experimental: Proliferation was assessed by staining with CellTrace Violet (Thermo Fisher Scientific) per manufacturer's instructions. Apoptosis was assessed using Annexin V staining kit (BioLegend). Phosphorylation of proteins to determine cell signaling was performed with BD Phosflow buffer system (BD bioscience) as per manufacturer's instructions.
T cell differentiation culture and flow cytometry. Naïve CD4+CD44-CD62L+CD25− T cells were sorted using BD FACSAria sorter and activated with plate-bound anti-CD3 (1 μg/ml) and antiCD28 antibodies (1 μg/ml) in the presence of cytokines at a concentration of 5×10^5 cells/ml. For T cell differentiations the following combinations of cytokines were used: pathogenic Th17: 25 ng/ml rmIL-6, 20 ng/ml rmIL-1b (both Miltenyi Biotec) and 20 ng/ml rmIL-23 (R&D systems); non-pathogenic Th17: 25 ng/ml rmIL-6 and 2 ng/ml of rhTGFb1 (Miltenyi Biotec); iTreg: 2 ng/ml of rhTGFb1; Th1: 20 ng/ml rmIL-12 (R&D systems); Th2: 20 ng/ml rmIL-4 (Miltenyi Biotec). Intracellular cytokine staining was performed after incubation for 4-6h with Cell Stimulation cocktail plus Golgi transport inhibitors (Thermo Fisher Scientific) using the BD Cytofix/Cytoperm buffer set (BD Biosciences) per manufacturer's instructions. Transcription factor staining was performed using the Foxp3/Transcription Factor Staining Buffer Set (eBioscience). Proliferation was assessed by staining with CellTrace Violet (Thermo Fisher Scientific) per manufacturer's instructions. Apoptosis was assessed using Annexin V staining kit (BioLegend). Phosphorylation of proteins to determine cell signaling was performed with BD Phosflow buffer system (BD bioscience) as per manufacturer's instructions.

[5] = tested on: experimental autoimmune encephalomyelitis (EAE); test: Adoptive transfer EAE with 2D2 TCR-transgenic Th17 cells differentiated in the presence of inhibitor; format: in vivo, mouse
From the text: For adoptive transfer EAE, naïve 2D2 transgenic T cells were sorted and differentiated into Th17n cells+/−EGCG or Th17p+/−DHEA as described for three days followed by a resting phase in the presence of IL-23 alone for 2 days. Cells were then harvested and restimulated with plate-bound anti-CD3 and anti-CD28 for 2 days prior to transfer. 2-8 million cells were transferred per mouse intravenously.
For adoptive transfer EAE, naive T cells (CD4+CD44-CD62L+CD25-) were isolated from 2D2 TCR-transgenic mice and activated with anti-CD3 ([…]) and anti-CD28 ([…]) in the presence of differentiation cytokines for 68h. Cells were rested for 2 days and restimulated with plate-bound anti-CD3 (0.5 mg/ml for pathogenic condition; […] for non-pathogenic condition) and anti-CD28 ([…]) for 2 days prior to transfer. Equal number (2 to 8 million) cells were transferred per mouse intravenously.

[6] = non-pathogenic and pathogenic Th17 cells
[7] = cMAF fl/fl CD4cre Th17 cells vs control
[8] = supernatant from both Th17n and Th17p cultures

For `NCCC[C@](N)(C(=O)O)C(F)F` [DFMO, 2-(difluoromethyl)ornithine], the Ass1 expression [1] was “specifically suppresses”, the “IL-17 (quantitative real time PCR)” value ([1]; CD4 T cells) was “decreased” and the SAT1 expression ([1]; T cells, Th17n and Th17p) was “reduces the expression; also recorded: decrease; also recorded: specifically suppresses; also recorded: decreases expression; also recorded: consistently suppressed”. The “relative expression of Foxp3” value [1, 6] was “increase”, the “relative expression of IL17A” value [1, 6] was “decrease” and the “relative expression of IL17F” value [1, 6] was “decrease”. For the same molecule, the SAT1 expression ([1]; pathogenic Th17 cells) was “decreased expression”, the “IL-17+ cells” value ([2]; DFMO at 4-5 days only (expansion phase)) was “no change” and the “IL-17+ cells” value ([2]; DFMO at both days 1-3 and days 4-5) was “decrease”. For the same molecule, the “IL-17+ cells” value ([2]; DFMO at days 1-3 only (differentiation)) was “decrease”, the “IL-17 positive CD4 T cells” value ([2]; FACS, Th17 condition not stated) was “decreased” and the cell proliferation ([2]; Th17 cultures) was “less cell proliferation; also recorded: reduced cell proliferation”. For the same molecule, the “frequency of Foxp3+ cells / Foxp3 expression” value ([2]; Th17n (non-pathogenic) condition) was “increase; also recorded: increased frequency”, the “upregulation of Foxp3 by DFMO” value ([2]; Th17n cells, absence of JMJD3 (JMJD3fl/flCD4cre)) was “partially abrogated” and the Rorgt expression ([2]; Th17p cells) was “suppressed”. The Tbet expression ([2]; Th17p cells) was “suppressed”, the “effect of DFMO on Foxp3 upregulation” value [2, 7] was “partially rescued” and the “effect of DFMO on expression of IL-17” value [2, 7] was “did not impact”. The “frequency of IL-17+ cells” value ([2]; cells that have divided just once) was “significantly reduced”, the “FoxP3 CD4 T cells” value ([2]; condition not stated) was “increase” and the IL-17 expression ([2]; intracellular staining, both Th17n and Th17p cells) was “suppresses IL-17 expression; also recorded: significantly inhibited”. For the same molecule, the Rorgt expression ([2]; pathogenic and non-pathogenic Th17 cells) was “did not consistently alter; also recorded: does not alter”, the “DFMO-dependent upregulation of IL-10” value ([3]; Th17n cells, loss of JMJD3, supernatant) was “reduced” and the IL-13 ([3]; pathogenic Th17 cells) was “decreased”. The IL-9 ([3]; protein, Th17n and Th17p cultures) was “promoted; also recorded: promoting”, the IL-17A [3, 8] was “significantly inhibited” and the IL-17F [3, 8] was “significantly inhibited”. The IFNg ([3]; supernatant, Th17n and Th17p) was “did not consistently influence”, the IL-5 ([3]; supernatant, Th17n and Th17p) was “did not consistently influence” and the IL-10 ([3]; supernatant, Th17n and Th17p) was “did not consistently influence”. For the same molecule, the IL-13 ([3]; supernatant, Th17n and Th17p) was “did not consistently influence”, the TNFa ([3]; supernatant, Th17n and Th17p) was “did not consistently influence” and the “total Stat3 protein levels” value [4] was “not total Stat3 protein levels”. The H3K4 trimethylation ([4]; Th17 cells) was “promoted”, the H3K9 trimethylation ([4]; Th17 cells) was “promoted” and the H3K27 trimethylation ([4]; Th17 cells) was “promoted”. For the same molecule, the pStat3 ([4]; Th17 cells) was “does not seem to alter; also recorded: did not alter; also recorded: inconsistently regulated”, the pStat3 ([4]; Th17p cells) was “decreased” and the “pFoxo1(S256)” value ([4]; both types of Th17 cells) was “promoted”.

With epigallocatechin-3-gallate [EGCG] the “optic neuritis/perineuritis in host mice” value ([5]; EGCG on Th17n, DHEA on Th17p) was “promoted”, the EAE severity ([5]; Th17n cells with IL-23 in differentiation culture, vs IL-23+solvent) was “significantly more severe EAE” and the “number of CNS lesions (meninges and parenchyma)” value ([5]; Th17n transfer) was “increased number of CNS lesions”. For the same molecule, the “Wallerian degeneration in proximal spinal nerve roots” value ([5]; mouse, in vivo) was “only experimental group to produce Wallerian degeneration; also recorded: induce Wallerian degeneration; also recorded: greater”, the EAE incidence rate ([5]; recipients of EGCG-treated Th17n cells, control group 0/12) was 10/12 and the meningeal inflammation ([5]; vs. Control mice) was “greater meningeal inflammation”. For the same molecule, the IFNg expression ([2]; Th17n cells) was “upregulation”, the IL-10 ([2]; Th17n cells) was “suppression” and the Tbet expression ([2]; Th17n cells) was “upregulation”. The “IL-17 positive CD4 T cells / IL-17 expression” value ([2]; glycolysis enzyme inhibitors, non-pathogenic or pathogenic Th17 conditions, cells after one division) was “increase” and the “cytokine profile / cytokine production” value ([3]; glycolysis enzyme inhibitors, Th17 cell cultures) was “retained their cytokine profile”.
